This assay in a line: In vitro binding affinity for PBR (peripheral benzodiazepine receptor) in monkey brain.

SMILES strings stand for the structures. pKi: −log10 of the molar value.

The term pKi denotes the Ki on a negative log10 scale, so that one unit is a factor of ten. `COc1ccc(OC)c(CN(C(C)=O)c2cc(F)ccc2Oc2ccccc2)c1` gave a negative-log Ki (pKi) of 9.73.

Source of the values: BindingDB's records for doi:10.1016/s0960-894x(02)00886-7 (National Institute of Radiological Sciences, 2002).
